From ChEMBL document CHEMBL1201862, “PubChem BioAssay data set” (2004) come the findings set out here.

Assay [1] concerns the target Peroxisome proliferator-activated receptor gamma/Nuclear receptor coactivator 2 (Homo sapiens, UniProt P37231). The format is functional.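 Also: agonist potency for raising coactivator recruitment to the receptor.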
Assay [2] concerns the target G-protein coupled receptor 35 (Homo sapiens, UniProt Q9HC97). The experiment in a line: inhibition of zaprinast-stimulated GPR35 beta-arrestin translocation – imaging, U2OS, beta-arrestin-GFP, zaprinast agonist, primary screen (AID 2058).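 Also: antagonist potency meaning inhibition of agonist-induced arrestin redistribution.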 In kind it is functional.
Assay [3] deals with Peroxisome proliferator-activated receptor gamma/Nuclear receptor coactivator 1 (Homo sapiens, UniProt P37231). The format is functional.
The test system of assay [4] is Streptococcus sp. 'group A'. The assay can be described thus: Streptococcus pyogenes SK(-)GAS viability under kanamycin – luminescence, BacTiterGlo, confirmation, counter-screen for streptokinase expression inhibitor project, dose response (AID 1900). In kind it is functional, organism-based. Background: A counterscreen serves to expose hits that act by an unwanted route or on another target.

Assay [5] deals with Peroxisome proliferator-activated receptor gamma/Nuclear receptor coactivator 3 (Homo sapiens, UniProt P37231). The format is functional.
Assay [6] deals with T1, Streptokinase A (Streptococcus pyogenes serotype M1, UniProt P10520).
T1 sequence (P10520 whole entry): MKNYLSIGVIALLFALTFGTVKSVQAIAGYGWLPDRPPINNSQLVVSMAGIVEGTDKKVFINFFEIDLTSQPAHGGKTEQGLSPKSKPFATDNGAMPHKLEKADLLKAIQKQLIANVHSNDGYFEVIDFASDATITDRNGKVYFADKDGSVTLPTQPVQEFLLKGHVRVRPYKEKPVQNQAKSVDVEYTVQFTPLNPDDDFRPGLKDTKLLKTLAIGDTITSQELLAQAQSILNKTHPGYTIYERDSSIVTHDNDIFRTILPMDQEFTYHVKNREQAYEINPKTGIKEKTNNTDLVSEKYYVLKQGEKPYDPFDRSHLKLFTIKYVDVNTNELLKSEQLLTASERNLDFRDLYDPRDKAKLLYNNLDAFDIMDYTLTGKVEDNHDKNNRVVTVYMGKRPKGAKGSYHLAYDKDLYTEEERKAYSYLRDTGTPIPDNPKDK
The experiment in a line: viability-normalized secreted streptokinase activity reduction – plasminogen activation absorbance, OD405, dose response (AID 1914).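 Also: secreted streptokinase activity via plasminogen activation per viability signal from cell pellet.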 The format is functional, Streptococcus pyogenes M1 GAS.

The nature of assay [7]: Trypanosoma cruzi growth suppression in host cells – NIH3T3 host cells, beta-gal luminescence, confirmation (AID 2044).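 Also: intracellular parasites grown in NIH/3T3 mouse fibroblasts as host cells; luminescent beta-galactosidase reporter signal from transgenic T. cruzi replicating inside host cells; inhibitors lower the luminescence signal.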 The format is functional, cell-based.
The nature of assay [8]: NIH3T3 cell viability loss – ATP luminescence, mouse fibroblasts, counter-screen, dose response (AID 2010).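 Also: cells exposed to compound for about 90 hours before reading.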 The format is functional, cell-based.
Assay [9] concerns Streptococcus. The experiment in a line: GAS UMAA2166 growth inhibition – luminescence, BacTiterGlo, counter-screen for streptokinase expression inhibitor project, dose response (AID 1915).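 Also: potency for reduction of bacterial viability or growth.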 In kind it is functional, organism-based.
Assay [10] concerns the target Voltage-dependent T-type calcium channel subunit alpha-1H (Homo sapiens, UniProt O95180). The format is functional.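 Also: channel activity triggered by adding a high calcium stimulation buffer.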
Assay [11] concerns HEK293. The experiment in a line: Fluorescence-based counterscreen for potentiators or agonists of NPY-Y2: cell-based high-throughput dose response assay to identify inhibitors of cyclic nucleotide gated ion channel (CNGC) activity. In this assay, the parental HEK293 cell line transfected with a cyclic-nucleotide gated ion channel (CNGC)-based cAMP sensor is used to measure inhibition of isoproterenol-induced CNGC activity by test compound. The format is functional. The following applies: Homo sapiens.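 Also: stimulus is 1 µM isoproterenol at EC100 plus PDE inhibitor Ro 20-1724 at 25 µM.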

The target of assay [12] is Neuropeptide Y receptor type 2 (Homo sapiens, UniProt P49146). The assay can be described thus: Fluorescence-based cell-based high-throughput dose response assay for agonists of NPY-Y2. [Related pubchem assays: 1703 (Screening assay (CNGC inhibitors).), 1359 (Screening assay (NPY-Y2 potentiators or agonists).), 1304 (Screening assay (NPY-Y1 potentiators or agonists).), 1710 (Screening assay (NPY-Y2 agonists).), 1791 (Summary AID.)]. The format is functional.

Assay [13] addresses Neuropeptide Y receptor type 1 (Homo sapiens, UniProt P25929). The assay can be described thus: Fluorescence-based counterscreen for agonists of NPY-Y2: cell-based high-throughput dose response assay for agonists of NPY-Y1. The format is functional.
Assay [14] addresses T2, Polyadenylate-binding protein 1 (Homo sapiens, UniProt P11940). The experiment in a line: MLLE binding blockers, Cy5 peptide tracer – biochemical, fluorescence polarization, Cy5-PAM2 peptide, secondary, miRNA deadenylation inhibitor project, dose response (AID 602260). The format is functional. The following applies: read-out: IC50_Mean. On the technique in general: Polarisation of emitted light reports the rotation of a fluorescent probe.

Assay [15] concerns the target T2, Polyadenylate-binding protein 1. The assay can be described thus: MLLE domain peptide-binding blockers, IC50 – biochemical, fluorescence polarization, FITC-PAM2 peptide, dose response (AID 602259). The following applies: read-out: IC50_Mean. The format is functional.
The nature of assay [16]: Luminescence-based counterscreen assay for KLF5 inhibitors: dose response cell-based high throughput screening assay to identify cytotoxic compounds using the IEC-6 intestinal epithelial cell line. [Related pubchem assays: 1700 (Primary screen.), 1834 (Confirmation screen.), 1858 (Summary AID.), 1905 (Counterscreen.)]. In kind it is functional.
Assay [17] deals with Eukaryotic translation initiation factor 4E (Mus musculus, UniProt P63073). The experiment in a line: blockers of eIF4G binding by eIF4E – biochemical, TR-FRET, dose response (AID 855).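 Also: potency for disrupting eIF4E binding to eIF4GI seen as loss of FRET.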 In kind it is functional. On the technique in general: Time-resolved FRET reads energy transfer from a long-lived donor to a nearby acceptor.
Assay [18] is described as follows: Counterscreen for IDE inhibitors: Luminescence-based cell-based high throughput dose response assay to identify compounds that are cytotoxic to HEK cells. [Related pubchem assays: 434962 (Primary screen (IDE inhibitors in singlicate)), 449730 (Counterscreen (Cytotoxicity in triplicate)), 435028 (Confirmation (IDE inhibitors in triplicate)) …. The format is functional. The following applies: HEK293.

In assay [19] the target is T3, Insulin-degrading enzyme (Homo sapiens, UniProt P14735).
T3 sequence (P14735 whole entry): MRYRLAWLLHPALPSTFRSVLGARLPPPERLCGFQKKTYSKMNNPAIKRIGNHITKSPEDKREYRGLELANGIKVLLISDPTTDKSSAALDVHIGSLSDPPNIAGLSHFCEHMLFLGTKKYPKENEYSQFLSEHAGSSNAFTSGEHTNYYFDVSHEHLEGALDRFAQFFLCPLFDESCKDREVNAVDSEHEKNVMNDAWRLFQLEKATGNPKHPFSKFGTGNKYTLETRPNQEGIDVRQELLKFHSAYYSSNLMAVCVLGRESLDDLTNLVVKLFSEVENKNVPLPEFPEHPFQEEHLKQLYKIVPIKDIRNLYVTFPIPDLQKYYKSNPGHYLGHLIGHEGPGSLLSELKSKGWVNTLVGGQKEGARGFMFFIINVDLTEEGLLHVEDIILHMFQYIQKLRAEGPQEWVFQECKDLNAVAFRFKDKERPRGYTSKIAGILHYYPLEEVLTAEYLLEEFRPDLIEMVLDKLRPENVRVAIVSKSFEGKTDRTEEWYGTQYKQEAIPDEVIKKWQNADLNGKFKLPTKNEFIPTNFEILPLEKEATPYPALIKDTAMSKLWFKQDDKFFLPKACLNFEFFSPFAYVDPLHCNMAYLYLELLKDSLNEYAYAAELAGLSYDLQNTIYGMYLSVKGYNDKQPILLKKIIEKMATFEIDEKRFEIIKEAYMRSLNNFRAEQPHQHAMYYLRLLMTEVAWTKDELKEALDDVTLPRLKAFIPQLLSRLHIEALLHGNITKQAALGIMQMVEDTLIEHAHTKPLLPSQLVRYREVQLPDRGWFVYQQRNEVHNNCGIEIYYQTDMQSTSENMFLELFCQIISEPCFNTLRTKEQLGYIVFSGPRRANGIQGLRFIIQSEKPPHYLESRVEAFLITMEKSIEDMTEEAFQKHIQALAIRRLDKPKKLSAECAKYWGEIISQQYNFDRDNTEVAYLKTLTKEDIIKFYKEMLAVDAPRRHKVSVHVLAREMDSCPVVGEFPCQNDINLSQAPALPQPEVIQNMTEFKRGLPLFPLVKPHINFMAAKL
The assay can be described thus: Dose Response: Fluorescence polarization-based cell-based high throughput dose response assay for inhibitors of insulin-degrading enzyme (IDE). [Related pubchem assays: 434962 (Primary screen (IDE inhibitors in singlicate)), 449730 (Counterscreen (Cytotoxicity in triplicate)), 435028 (Confirmation (IDE inhibitors in triplicate)), 434984 (Summary …. The format is functional.

Assay [20] concerns the target Photoreceptor-specific nuclear receptor (Homo sapiens, UniProt Q9Y5X4). The format is functional.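 Also: potency for compounds that break the NR2E3 corepressor complex and count as activators.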
In assay [21] the target is Peroxisome proliferator-activated receptor gamma/Nuclear receptor corepressor 2 (Homo sapiens, UniProt P37231+Q9Y618). In kind it is functional.

Broadly, the EC50 is the concentration at which the effect is half-maximal.

The source made the active and inactive calls.

T2 sequence (P11940 whole entry): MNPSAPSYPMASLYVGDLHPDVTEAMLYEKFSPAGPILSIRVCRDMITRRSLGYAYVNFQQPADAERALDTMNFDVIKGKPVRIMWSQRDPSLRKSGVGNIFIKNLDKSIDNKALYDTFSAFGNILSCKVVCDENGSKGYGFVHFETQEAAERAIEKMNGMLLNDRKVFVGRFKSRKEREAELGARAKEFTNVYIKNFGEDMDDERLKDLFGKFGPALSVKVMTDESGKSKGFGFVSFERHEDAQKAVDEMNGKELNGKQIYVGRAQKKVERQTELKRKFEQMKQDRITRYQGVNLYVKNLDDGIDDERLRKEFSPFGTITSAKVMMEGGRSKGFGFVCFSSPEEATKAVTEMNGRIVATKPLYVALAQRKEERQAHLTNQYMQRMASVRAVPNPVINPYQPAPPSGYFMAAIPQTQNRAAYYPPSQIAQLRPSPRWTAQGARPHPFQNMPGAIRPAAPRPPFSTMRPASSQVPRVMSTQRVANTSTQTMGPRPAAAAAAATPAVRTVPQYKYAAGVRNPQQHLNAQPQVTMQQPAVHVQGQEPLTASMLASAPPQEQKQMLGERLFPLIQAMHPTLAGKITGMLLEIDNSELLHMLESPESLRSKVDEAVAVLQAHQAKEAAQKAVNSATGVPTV
G-protein coupled receptor 35, sequence (Q9HC97 whole entry): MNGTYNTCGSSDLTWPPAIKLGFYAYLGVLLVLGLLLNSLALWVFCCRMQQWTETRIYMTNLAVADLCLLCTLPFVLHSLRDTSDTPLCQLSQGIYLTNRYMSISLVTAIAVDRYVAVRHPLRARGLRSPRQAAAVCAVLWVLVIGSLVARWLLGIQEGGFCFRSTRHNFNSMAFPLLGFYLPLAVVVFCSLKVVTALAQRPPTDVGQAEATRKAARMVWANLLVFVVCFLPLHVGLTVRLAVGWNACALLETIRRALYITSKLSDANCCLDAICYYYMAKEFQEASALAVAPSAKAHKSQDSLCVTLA
Voltage-dependent T-type calcium channel subunit alpha-1H, sequence (O95180 whole entry): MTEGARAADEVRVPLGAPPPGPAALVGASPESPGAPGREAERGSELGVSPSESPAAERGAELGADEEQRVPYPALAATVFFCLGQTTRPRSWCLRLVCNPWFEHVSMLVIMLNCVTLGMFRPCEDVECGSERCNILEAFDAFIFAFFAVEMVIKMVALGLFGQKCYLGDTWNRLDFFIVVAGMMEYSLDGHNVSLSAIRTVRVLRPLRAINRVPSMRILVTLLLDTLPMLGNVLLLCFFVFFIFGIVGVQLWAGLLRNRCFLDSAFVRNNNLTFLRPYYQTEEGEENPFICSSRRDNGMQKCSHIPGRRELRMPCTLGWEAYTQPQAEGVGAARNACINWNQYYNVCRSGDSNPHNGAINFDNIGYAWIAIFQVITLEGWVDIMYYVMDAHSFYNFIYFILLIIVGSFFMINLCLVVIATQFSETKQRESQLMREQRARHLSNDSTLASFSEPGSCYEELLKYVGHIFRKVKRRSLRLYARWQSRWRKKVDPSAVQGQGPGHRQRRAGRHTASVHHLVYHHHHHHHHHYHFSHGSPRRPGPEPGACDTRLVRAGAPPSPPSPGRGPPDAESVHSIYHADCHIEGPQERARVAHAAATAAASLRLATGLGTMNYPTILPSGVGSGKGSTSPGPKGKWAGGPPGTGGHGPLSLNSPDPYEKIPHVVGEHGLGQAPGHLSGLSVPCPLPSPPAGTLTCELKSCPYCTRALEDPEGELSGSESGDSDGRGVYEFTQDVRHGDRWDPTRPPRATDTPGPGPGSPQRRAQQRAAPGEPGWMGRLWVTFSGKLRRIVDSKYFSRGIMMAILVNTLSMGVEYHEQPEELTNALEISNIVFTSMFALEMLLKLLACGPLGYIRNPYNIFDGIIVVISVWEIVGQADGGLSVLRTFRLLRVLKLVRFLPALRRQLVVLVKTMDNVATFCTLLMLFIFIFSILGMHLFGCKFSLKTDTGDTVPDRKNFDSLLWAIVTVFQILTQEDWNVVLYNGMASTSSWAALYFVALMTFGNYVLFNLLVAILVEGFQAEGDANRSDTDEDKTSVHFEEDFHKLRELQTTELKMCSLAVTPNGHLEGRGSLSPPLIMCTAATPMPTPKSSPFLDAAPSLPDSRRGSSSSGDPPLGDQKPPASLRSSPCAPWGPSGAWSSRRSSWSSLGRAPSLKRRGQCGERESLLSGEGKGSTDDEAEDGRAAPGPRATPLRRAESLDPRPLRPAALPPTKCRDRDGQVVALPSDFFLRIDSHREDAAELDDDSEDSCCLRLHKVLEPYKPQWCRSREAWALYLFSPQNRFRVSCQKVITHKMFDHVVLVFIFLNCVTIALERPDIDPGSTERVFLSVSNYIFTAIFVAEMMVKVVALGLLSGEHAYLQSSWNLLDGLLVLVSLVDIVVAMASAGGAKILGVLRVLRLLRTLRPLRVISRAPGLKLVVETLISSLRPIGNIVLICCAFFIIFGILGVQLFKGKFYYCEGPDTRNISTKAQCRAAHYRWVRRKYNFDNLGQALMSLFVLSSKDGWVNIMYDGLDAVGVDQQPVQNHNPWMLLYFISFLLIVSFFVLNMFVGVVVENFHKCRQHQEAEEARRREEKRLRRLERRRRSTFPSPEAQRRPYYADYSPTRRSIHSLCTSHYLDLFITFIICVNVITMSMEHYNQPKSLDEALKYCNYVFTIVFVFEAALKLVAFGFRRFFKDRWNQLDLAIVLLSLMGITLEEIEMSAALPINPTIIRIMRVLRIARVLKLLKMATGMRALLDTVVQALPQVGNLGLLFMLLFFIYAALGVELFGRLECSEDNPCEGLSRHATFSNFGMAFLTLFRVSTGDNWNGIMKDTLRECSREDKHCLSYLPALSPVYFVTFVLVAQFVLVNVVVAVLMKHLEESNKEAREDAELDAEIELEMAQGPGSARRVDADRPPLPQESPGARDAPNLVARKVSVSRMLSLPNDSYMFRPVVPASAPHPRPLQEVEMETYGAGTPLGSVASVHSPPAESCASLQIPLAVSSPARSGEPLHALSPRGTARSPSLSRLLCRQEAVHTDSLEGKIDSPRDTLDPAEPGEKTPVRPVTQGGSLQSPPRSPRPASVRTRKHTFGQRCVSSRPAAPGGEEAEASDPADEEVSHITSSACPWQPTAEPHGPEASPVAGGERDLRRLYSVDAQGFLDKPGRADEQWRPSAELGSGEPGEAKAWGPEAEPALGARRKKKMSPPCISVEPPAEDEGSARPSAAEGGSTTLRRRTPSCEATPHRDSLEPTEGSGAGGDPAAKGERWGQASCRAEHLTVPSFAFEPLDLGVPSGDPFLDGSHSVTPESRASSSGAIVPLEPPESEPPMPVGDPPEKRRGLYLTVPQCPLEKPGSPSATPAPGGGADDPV
Neuropeptide Y receptor type 1, sequence (P25929 whole entry): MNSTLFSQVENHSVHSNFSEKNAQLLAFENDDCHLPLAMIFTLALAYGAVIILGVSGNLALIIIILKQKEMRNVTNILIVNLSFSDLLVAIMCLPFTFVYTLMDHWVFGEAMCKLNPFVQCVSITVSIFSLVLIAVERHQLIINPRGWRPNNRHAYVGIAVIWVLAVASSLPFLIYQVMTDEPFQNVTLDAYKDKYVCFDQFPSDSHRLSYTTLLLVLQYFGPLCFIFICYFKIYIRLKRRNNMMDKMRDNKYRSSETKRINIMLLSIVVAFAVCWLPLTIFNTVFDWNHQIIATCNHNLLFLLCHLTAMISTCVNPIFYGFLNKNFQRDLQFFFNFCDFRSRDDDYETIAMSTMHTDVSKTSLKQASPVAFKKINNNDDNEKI
Photoreceptor-specific nuclear receptor, sequence (Q9Y5X4 whole entry): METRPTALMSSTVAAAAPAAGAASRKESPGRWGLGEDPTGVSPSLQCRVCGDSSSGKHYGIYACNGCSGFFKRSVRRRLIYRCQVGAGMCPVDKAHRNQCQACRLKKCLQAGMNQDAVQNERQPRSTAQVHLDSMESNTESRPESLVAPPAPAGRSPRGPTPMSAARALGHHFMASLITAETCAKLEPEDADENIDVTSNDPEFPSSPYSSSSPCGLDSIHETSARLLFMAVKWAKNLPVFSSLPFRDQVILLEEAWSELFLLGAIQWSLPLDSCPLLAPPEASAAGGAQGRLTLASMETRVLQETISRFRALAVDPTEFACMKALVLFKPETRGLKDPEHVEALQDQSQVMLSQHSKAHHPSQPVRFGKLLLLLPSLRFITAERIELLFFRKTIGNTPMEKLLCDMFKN
Eukaryotic translation initiation factor 4E, sequence (P63073 whole entry): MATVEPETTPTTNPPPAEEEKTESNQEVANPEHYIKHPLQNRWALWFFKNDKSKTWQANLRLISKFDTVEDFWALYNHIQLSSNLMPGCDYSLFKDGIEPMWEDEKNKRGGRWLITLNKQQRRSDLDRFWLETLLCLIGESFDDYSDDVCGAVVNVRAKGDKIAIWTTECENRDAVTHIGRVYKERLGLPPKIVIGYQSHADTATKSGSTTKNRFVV
Neuropeptide Y receptor type 2, sequence (P49146 whole entry): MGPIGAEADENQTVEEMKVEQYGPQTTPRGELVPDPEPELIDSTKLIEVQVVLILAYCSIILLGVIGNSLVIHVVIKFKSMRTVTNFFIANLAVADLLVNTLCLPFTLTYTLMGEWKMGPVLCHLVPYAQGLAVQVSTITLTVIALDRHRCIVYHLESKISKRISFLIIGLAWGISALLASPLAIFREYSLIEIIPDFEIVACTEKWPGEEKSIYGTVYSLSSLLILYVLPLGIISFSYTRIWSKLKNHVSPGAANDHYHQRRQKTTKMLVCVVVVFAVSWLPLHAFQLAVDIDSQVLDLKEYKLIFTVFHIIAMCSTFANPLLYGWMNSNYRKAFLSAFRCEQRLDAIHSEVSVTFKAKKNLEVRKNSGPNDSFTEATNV

In the case of `CCCOc1cc(N(CC)CC)ccc1/C=C(/C#N)c1nc2cc(C)ccc2[nH]1`, the EC50 in [1] is > 79.4 µM (not active); in assay [3] it was > 79.4 µM (not active); in [4], 41.5 µM (active); in assay [5], > 79.4 µM (not active); in assay [6], 31.9 µM (active); in assay [7] it was 0.937 µM (active). The EC50 is > 60 µM (not active) in [8], > 150 µM (not active) in assay [9] and 1.19 µM (active) in [10]. The IC50 in [2] was 0.573 µM (active).

In the case of `COc1ccc(N=C(S)NC(NC(=O)c2cccc(Cl)c2)C(Cl)(Cl)Cl)c([N+](=O)[O-])c1` (stereo not drawn), the EC50 in assay [11] is > 35.4 µM (not active); in assay [12], > 35.4 µM (not active); in assay [7] it was 1.6 µM (active); in [13], 16.7 µM (not active); in assay [8] it was > 30 µM (not active). Moreover, the IC50 in assay [14] and in assay [15] was > 66 µM (inactive) in each case.

Turning to `COc1ccc(OC)c(Nc2nc(=O)c3cccnc3s2)c1`, the values for the IC50 in assay [16] and in assay [17] were > 39.8 µM (not active) and 50 µM (inactive), respectively.

For the compound `O=C(NCCC1=CCCCC1)Nc1ccc2nsnc2c1`, the IC50 is on record as 23.8 µM (not active) in assay [18] and > 56 µM (not active) in [19].

For `O=C(C1=C(O)C(=O)N(CCCN2CCOCC2)C1c1ccc(Cl)cc1)c1cc2ccccc2o1` (stereo not drawn), the IC50 in [20] was > 39.8 µM (not active); in [21], 5.14 µM (active).
